Results published in article PMC4884539 (Journal of molecular biology, 2016).

Settings: pH 7.4

Row | Substance | Solubility (in words)
1 | Ac- RGEaWmYlKNNLSETmMsNmWGR- NH2 [AP6] | less soluble
2 | Ac- MNWESkGEwlRMRYGtmLSNGnM- NH2 [Design P2] | less soluble
